The target in assay [1] is human Farnesoid X receptor ligand-binding domain/Gal4 DNA binding domain chimera (Homo sapiens (Human), UniProt Q96RI1). In words: Cell-based assay of FXR activation (FXR-UAS-bla HEK 293T beta-lactamase reporter). As to conditions: cellular FXR beta-lactamase reporter assay; for Emax: HEK-293T, extent of activation relative to GW4064, read-out: % Efficacy; for EC50: FXR-UAS-bla HEK 293T cells, 16 h, pEC50 = -log EC50. Summed up: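 HEK 293T cells stably expressing a Gal4-fused human FXR LBD and a UAS-driven beta-lactamase reporter were incubated with serially diluted compounds for 16 h at 37 °C in phenol red-free DMEM with 2% charcoal-stripped FBS. CCF4 FRET read-out: excitation 409 nm, emission 447 nm. pEC50 comes from a 3-parameter logistic fit, and efficacy is given as % of GW4064.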
Chain of human Farnesoid X receptor ligand-binding domain/Gal4 DNA binding domain chimera (Q96RI1 262-486, change not shown): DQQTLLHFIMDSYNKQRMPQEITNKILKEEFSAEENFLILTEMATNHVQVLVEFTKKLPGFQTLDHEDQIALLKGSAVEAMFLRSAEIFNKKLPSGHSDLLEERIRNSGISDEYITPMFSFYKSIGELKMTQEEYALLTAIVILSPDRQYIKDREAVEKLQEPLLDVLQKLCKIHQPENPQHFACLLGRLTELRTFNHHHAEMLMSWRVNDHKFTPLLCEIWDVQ
Chain of human Farnesoid X receptor ligand-binding domain/Gal4 DNA binding domain chimera (P04386 1-147 partner): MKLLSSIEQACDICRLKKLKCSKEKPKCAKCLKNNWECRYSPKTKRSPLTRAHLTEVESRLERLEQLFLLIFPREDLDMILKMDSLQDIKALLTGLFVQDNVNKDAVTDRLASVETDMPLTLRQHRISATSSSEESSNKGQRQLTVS
(In general: A reporter such as luciferase makes a cellular process visible.)

The target of assay [2] is ligand binding domain of human FXR (Homo sapiens (Human), UniProt Q96RI1). In words: FXR ligand binding assay (LanthaScreen TR-FRET, SRC2-2 peptide recruitment). The note with it: for pEC50: -log EC50, concentration required to produce 50% activation; for Emax: extent of activation relative to GW4064, read-out: % Efficacy. (In TR-FRET formats the signal depends on donor and acceptor labels being close together.)
Chain of ligand binding domain of human FXR (Q96RI1 262-486): as the sequence (Q96RI1 262-486, change not shown) above

As to `O=C(NCCS(=O)(=O)O)c1ccc(N2C[C@@H]3C[C@H]2C[C@H]3OCc2c(-c3c(Cl)cccc3Cl)noc2C2CC2)cc1` [Compound I-166, 2-({4-[(1S,4S,5R)-5-{[5-cyclopropyl-3-(2,6-dichlorophenyl)-1,2-oxazol-4-yl]methoxy}-2-azabicyclo[2.2.1]heptan-2-yl]phenyl}formamido)ethane-1-sulfonic Acid], in assay [1], the Emax was determined as 114% and it took 50.1 nM to reach a half-maximal effect (EC50). Besides, in assay [2], the pEC50 – broadly, the EC50 on a negative log10 scale, so that one unit is a factor of ten – stood at 8.7 and the Emax turned out to be 154%.

For `O=C1OCc2cc(N3C[C@@H]4C[C@H]3C[C@H]4OCc3c(-c4c(Cl)cccc4Cl)noc3C3CC3)ccc21` [Compound I-141, 5-[(1S,4S,5R)-5-{[5-cyclopropyl-3-(2,6-dichlorophenyl)-1,2-oxazol-4-yl]methoxy}-2-azabicyclo[2.2.1]heptan-2-yl]-1,3-dihydro-2-benzofuran-1-one], in assay [1], the Emax came out at 106% and the EC50 (commonly the concentration that produces a half-maximal response) is 63.1 nM. In assay [2], the pEC50 is given as 7 and the Emax amounted to 137%.

As to `O=C(O)c1ccc2nc(N3C[C@@H]4C[C@H]3C[C@@H]4OC(=O)c3c(-c4c(Cl)cccc4Cl)noc3C3CC3)sc2c1` [Compound I-35, 2-[(1S,4S,5S)-5-[5-cyclopropyl-3-(2,6-dichlorophenyl)-1,2-oxazole-4-carbonyloxy]-2-azabicyclo[2.2.1]heptan-2-yl]-1,3-benzothiazole-6-carboxylic Acid], in assay [1], the Emax came out at 19% and the EC50 is 631 nM. Moreover, in assay [2], the pEC50 is on record as greater than 4.5.

Take `O=C(NS(=O)(=O)C1CCCC1)c1ccc(N2C(=O)[C@@H]3C[C@H]2C[C@H]3OCc2c(-c3c(Cl)cccc3Cl)noc2C2CC2)cc1` [Compound I-343, N-(cyclopentylsulfonyl)-4-((1S,4R,5R)-5-((5-cyclopropyl-3-(2,6-dichlorophenyl)isoxazol-4-yl)methoxy)-3-oxo-2-azabicyclo[2.2.1]heptan-2-yl)benzamide]: in assay [1], the Emax is 105% and the EC50 is 0.1 nM. Also, in assay [2], the pEC50 worked out at 9 and the Emax was 176%.

With `CS(=O)(=O)NC(=O)CCc1ccc(N2C[C@@H]3C[C@H]2C[C@H]3OCc2c(-c3c(F)cccc3Cl)noc2C2CC2)c(F)c1` [Compound I-239, 3-(4-((1S,4S,5R)-5-((3-(2-chloro-6-fluorophenyl)-5-cyclopropylisoxazol-4-yl)methoxy)-2-azabicyclo[2.2.1]heptan-2-yl)-3-fluorophenyl)-N-(methylsulfonyl)propanamide], in assay [1], the Emax was found to be 94% and a half-maximal effect (EC50) was put at 7.94 nM. Moreover, in assay [2], the pEC50 is reported as 8.2 and the Emax is 176%.

With `O=C(O)c1cc(F)c2nc(N3C[C@H]4C[C@@H]3C[C@H]4OC(=O)c3c(-c4c(Cl)cccc4Cl)noc3C3CC3)sc2c1` [Compound I-40, 2-[(1R,4R,5R)-5-[5-cyclopropyl-3-(2,6-dichlorophenyl)-1,2-oxazole-4-carbonyloxy]-2-azabicyclo[2.2.1]heptan-2-yl]-4-fluoro-1,3-benzothiazole-6-carboxylic Acid], the concentration for a half-maximal effect (EC50) in assay [1] was less than 31600 nM. In assay [2], this compound yielded a pEC50 greater than 4.5.

As to `CCCS(=O)(=O)NC(=O)c1ccc(N2C[C@@H]3C[C@H]2C[C@H]3OCc2c(-c3ccccc3C(F)(F)F)noc2C2CC2)c(F)c1` [Compound I-200, 4-((1S,4S,5R)-5-((5-cyclopropyl-3-(2-(trifluoromethyl)phenyl)isoxazol-4-yl)methoxy)-2-azabicyclo[2.2.1]heptan-2-yl)-3-fluoro-N-(propylsulfonyl)benzamide], in assay [1], the Emax worked out at 110% and it took 0.251 nM to reach a half-maximal effect (EC50). Moreover, in assay [2], the pEC50 turned out to be 8.6 and the Emax came out at 215%.

The record behind these values is patent publication US10793568B2, “Hormone receptor modulators for treating metabolic conditions and disorders” (ARDELYX, INC., priority 2016, dated 2020).
